From patent US20240366644A1, “ANTI-INFLAMMATORY APPLICATION OF GINSENOSIDE RD” (priority 2022, published 2024)

Tests used:
[1] = system: xylene-induced swelling of mouse ears; assay: Xylene-induced swelling of mouse ears; assay type: in vivo, Kunming mice; conditions: for Ear mass difference / Swelling degree: 4 h after xylene
Description: […] KM mice, weighing 18-22 g, were randomly grouped, with ten mice in each group. The groups include a model group, a positive control group (Indomethacin, 10 mg/kg), a ginsenoside Rd low-dose group (5 mg/kg), and a ginsenoside Rd high-dose group (10 mg/kg). After 30 min of gavage administration of mice (the model group was administrated with the equal volume of 0.5% sodium carboxymethylcellulose by gavage), 0.03 ml of xylene was evenly applied to both sides of the right ear of each mouse in each group to cause inflammations on both sides, and the left ear of the mouse was not applied as a control. After 4 h, the mouse was killed by dislocation of cervical vertebra, the two ears of the mouse were cut off along the auricle, round ear slices of the same size (a diameter of 6 mm) were taken at the same position of the left and right ears and weighed respectively, a mass difference of the two ear slices was used as an ear swelling degree, and a swelling inhibition rate was calculated.

[2] = system: mice infected with COVID-19 Delta virus; assay: Lung histopathology of mice infected with COVID-19 Delta virus; assay type: in vivo, hACE2 transgenic C57BL/6 mice; conditions: for Interstitial pneumonia Mild / Interstitial pneumonia Moderate / Interstitial pneumonia Severe / Pulmonary hemorrhage Mild / Pulmonary hemorrhage Moderate / Pulmonary hemorrhage Severe: number of mice with this degree (four per group), five days
[3] = system: COVID-19 Delta virus-infected mice; assay: IL-1β and MCP-1 expression (RT-qPCR) in lung homogenates of COVID-19 Delta virus-infected mice; assay type: in vivo, hACE2 transgenic C57BL/6 mice; conditions: for IL-1β expression level in lung homogenate / MCP-1 expression level in lung homogenate: mRNA, blank group 1.00, Day 5 of infection
[4] = system: Chronic Obstructive Pulmonary Disease in Rats; assay: Serum TNF-α and IL-8 in rats with chronic obstructive pulmonary disease (LPS + smoking); assay type: in vivo, SD rats
Description: After adaptive feeding (20-25° C., a humidity of 50-60%) for 1 week, the rats were randomly divided into a blank group, a model group, a positive control group, a ginsenoside Rd high-dose group, and a ginsenoside Rd low-dose group, with ten rats in each group.
Model group: on the Day 1 and Day 14, each rat was intraperitoneally injected with 10% chloral hydrate (300 mg/kg) for anesthesia; the head was fixed in a low position; the glottis was exposed; lipopolysaccharide was quickly injected into the trachea; and the rat was kept upright, and swung left and right for 10-20 s, such that the lipopolysaccharide was evenly distributed in the two lungs. On the Days 2-13, and 15-28, the lungs were smoked in a closed organic glass box for 30 min every day, with 15 cigarettes per day.
Positive control group: the animal was anesthetized, and intratracheally injected with lipopolysaccharide, wherein smoking conditions and time were the same as those of the model group; and after tracheal injection of lipopolysaccharide for two weeks, the animal was administrated with Simvastatin by gavage (2.5 mg/kg), and killed after six weeks, and serum was collected.
In accordance with the instructions, the levels of TNF-α and IL-8 in the serum were detected by enzyme-linked immunosorbent assay. The data was expressed as x±s, p<0.05, which meant that it was statistically significant.

[5] = system: Chronic Obstructive Pulmonary Disease in Rats; assay: Lung pathomorphology of rats with chronic obstructive pulmonary disease; assay type: in vivo, SD rats
[6] = 5 mg/kg gavage 30 min before xylene
[7] = 10 mg/kg gavage 30 min before xylene
[8] = high-dose 20 mg/kg gavage once a day
[9] = low-dose 10 mg/kg gavage once a day

CC(C)=CCC[C@](C)(O[C@@H]1O[C@H](CO)[C@@H](O)[C@H](O)[C@H]1O)[C@H]1CC[C@]2(C)[C@@H]1[C@H](O)C[C@@H]1[C@@]3(C)CC[C@H](O[C@@H]4O[C@H](CO)[C@@H](O)[C@H](O)[C@H]4O[C@@H]4O[C@H](CO)[C@@H](O)[C@H](O)[C@H]4O)C(C)(C)[C@@H]3CC[C@]12C [Ginsenoside Rd, ginsenoside Rd]
Ear mass difference [1, 6]: 11.84 ± 1.02 mg | Swelling degree [1, 6]: 7.56 ± 2.05 (mg) (%) | ear swelling inhibition rate compared with Indomethacin ([1]; 10 mg/kg): close to that of Indomethacin | Ear mass difference [1, 7]: 7.68 ± 0.39 mg | Swelling degree [1, 7]: 6.59 ± 1.96 (mg) (%) | inhibition at 5 mg/kg ([1]; Mus musculus, po, ear swelling, 5 mg/kg gavage, read-out: Inhibition rate): 30.3% | inhibition at 10 mg/kg ([1]; Mus musculus, po, ear swelling, 10 mg/kg gavage, read-out: Inhibition rate): 39.3% | ear swelling of mice caused by xylene ([1]; compared with the model group): significantly inhibit ear swelling | lung lesions caused by COVID-19 Delta virus ([2]; 10 mg/kg and 20 mg/kg, compared with virus group): good improvement effects on lung lesions | pathological improvement of pulmonary hemorrhage and interstitial pneumonia compared with Dexamethasone ([2]; high-dose group 20 mg/kg): better than Dexamethasone | Interstitial pneumonia Mild [2, 8]: 4 | Interstitial pneumonia Moderate [2, 8]: 0 | Interstitial pneumonia Severe [2, 8]: 0 | Pulmonary hemorrhage Mild [2, 8]: 4 | Pulmonary hemorrhage Moderate [2, 8]: 0 | Pulmonary hemorrhage Severe [2, 8]: 0 | Interstitial pneumonia Mild [2, 9]: 2 | Interstitial pneumonia Moderate [2, 9]: 2 | Interstitial pneumonia Severe [2, 9]: 0 | Pulmonary hemorrhage Mild [2, 9]: 2 | Pulmonary hemorrhage Moderate [2, 9]: 2 | Pulmonary hemorrhage Severe [2, 9]: 0 | IL-1β and MCP-1 inflammatory factors ([3]; compared with the virus model group): significantly reduced | IL-1β expression level in lung homogenate ([3]; 10 mg/kg gavage): 20.88 ± 6.42 | MCP-1 expression level in lung homogenate ([3]; 10 mg/kg gavage): 18.71 ± 13.75 | IL-1β expression level in lung homogenate ([3]; 20 mg/kg gavage): 10.13 ± 6.68 | MCP-1 expression level in lung homogenate ([3]; 20 mg/kg gavage): 7.15 ± 9.36 | IL-8 in serum ([4]; high-dose 10 mg/kg): 24.88 ± 14.67 | TNF-α in serum ([4]; high-dose 10 mg/kg): 12.13 ± 17.06 | efficacy on serum inflammatory factors compared with Simvastatin ([4]; high-dose group): considerable to that of Simvastatin | IL-8 in serum ([4]; low-dose 5 mg/kg): 30.97 ± 13.70 | TNF-α in serum ([4]; low-dose 5 mg/kg): 12.92 ± 10.20 | Epithelial cell necrosis Mild ([5]; 5 mg/kg): 6 | Epithelial cell necrosis Moderate ([5]; 5 mg/kg): 4 | Epithelial cell necrosis Severe ([5]; 5 mg/kg): 0 | Interstitial inflammatory cell infiltration Mild ([5]; 5 mg/kg): 6 | Interstitial inflammatory cell infiltration Moderate ([5]; 5 mg/kg): 4 | Interstitial inflammatory cell infiltration Severe ([5]; 5 mg/kg): 0 | Epithelial cell necrosis Mild ([5]; 10 mg/kg): 7 | Epithelial cell necrosis Moderate ([5]; 10 mg/kg): 3 | Epithelial cell necrosis Severe ([5]; 10 mg/kg): 0 | Interstitial inflammatory cell infiltration Mild ([5]; 10 mg/kg): 7 | Interstitial inflammatory cell infiltration Moderate ([5]; 10 mg/kg): 3 | Interstitial inflammatory cell infiltration Severe ([5]; 10 mg/kg): 0 | lung lesions ([5]; 10 mg/kg and 5 mg/kg, compared with the model group): good improvement effects on lung lesions | effect on lung lesions compared with the Simvastatin group ([5]; high-dose group 10 mg/kg): considerable to the Simvastatin group
